Publication PMC5704987 (Fetal and pediatric pathology, 2017)
“And” between values parts separate entries of the source, which are not always exact repeats. Equal values may be shown once. Read-outs that look alike come from different tables or passages of the source. Each block holds one molecule with its values, some of them ahead of it.

Experiments:
[1] = Progesterone metabolism in pooled human liver microsomes
[2] = system: oxytocin-induced uterine contractility; conditions: murine model, preliminary work by the group; ref [10]; cited from earlier work
[3] = biological target: T1, recombinant CYP19A1 (aromatase) (Homo sapiens, UniProt P11511); assay: Progesterone incubation with recombinant CYP19A1; assay type: in vitro ADME; conditions: progesterone 100 μM, CYP19A1 25 pmol, data not shown
T1 sequence (P11511 1-503): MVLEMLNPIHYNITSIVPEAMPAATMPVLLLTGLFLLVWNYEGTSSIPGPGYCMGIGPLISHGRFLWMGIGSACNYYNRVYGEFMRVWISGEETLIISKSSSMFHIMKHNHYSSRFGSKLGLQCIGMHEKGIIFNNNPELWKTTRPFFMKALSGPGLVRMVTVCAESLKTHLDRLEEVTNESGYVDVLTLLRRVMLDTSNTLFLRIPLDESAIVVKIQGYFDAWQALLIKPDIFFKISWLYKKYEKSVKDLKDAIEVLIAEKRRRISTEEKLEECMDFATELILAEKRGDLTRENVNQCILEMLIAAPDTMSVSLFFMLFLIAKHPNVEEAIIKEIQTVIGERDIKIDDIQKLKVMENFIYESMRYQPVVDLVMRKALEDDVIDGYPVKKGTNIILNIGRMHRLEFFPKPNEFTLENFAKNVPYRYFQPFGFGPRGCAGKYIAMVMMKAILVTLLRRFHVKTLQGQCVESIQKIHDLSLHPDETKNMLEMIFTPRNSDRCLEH

[4] = In vitro in vivo extrapolation to fetal liver; parameters: species or system human
recombinant CYP2A6 = biological target: T2, recombinant CYP2A6 (Homo sapiens, UniProt P11509); assay: Progesterone incubation with recombinant CYP2A6; assay type: in vitro ADME; conditions: recombinant CYP2A6, data not shown
T2 sequence (P11509 1-494): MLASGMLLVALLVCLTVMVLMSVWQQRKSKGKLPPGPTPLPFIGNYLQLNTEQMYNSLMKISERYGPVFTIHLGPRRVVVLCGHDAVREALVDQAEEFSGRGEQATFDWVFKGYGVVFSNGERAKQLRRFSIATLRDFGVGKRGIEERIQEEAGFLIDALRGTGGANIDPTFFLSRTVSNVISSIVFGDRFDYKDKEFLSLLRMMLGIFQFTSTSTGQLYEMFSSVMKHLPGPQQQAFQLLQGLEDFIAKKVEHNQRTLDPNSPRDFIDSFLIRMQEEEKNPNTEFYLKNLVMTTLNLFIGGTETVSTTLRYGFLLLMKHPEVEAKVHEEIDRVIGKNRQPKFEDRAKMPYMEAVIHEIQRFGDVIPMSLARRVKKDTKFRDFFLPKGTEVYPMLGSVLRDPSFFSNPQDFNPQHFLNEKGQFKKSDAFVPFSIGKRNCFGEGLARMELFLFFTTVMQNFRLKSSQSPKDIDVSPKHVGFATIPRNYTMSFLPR

CYP17A1 = conditions: microsomes from CYP17A1-transfected COS1 cells; ref [11]; cited from earlier work
recombinant human CYP3A5 = recombinant human CYP3A5 (Homo sapiens, UniProt P20815); conditions: recombinant enzyme, pH 7.4
[5] = human, microsomes, pH 7.4
in vitro = conditions: human
recombinant human CYP3A4 = recombinant human CYP3A4 (Homo sapiens, UniProt P08684); conditions: pH 7.4
Sequence of recombinant human CYP3A4 (P08684 2-503 limits assumed): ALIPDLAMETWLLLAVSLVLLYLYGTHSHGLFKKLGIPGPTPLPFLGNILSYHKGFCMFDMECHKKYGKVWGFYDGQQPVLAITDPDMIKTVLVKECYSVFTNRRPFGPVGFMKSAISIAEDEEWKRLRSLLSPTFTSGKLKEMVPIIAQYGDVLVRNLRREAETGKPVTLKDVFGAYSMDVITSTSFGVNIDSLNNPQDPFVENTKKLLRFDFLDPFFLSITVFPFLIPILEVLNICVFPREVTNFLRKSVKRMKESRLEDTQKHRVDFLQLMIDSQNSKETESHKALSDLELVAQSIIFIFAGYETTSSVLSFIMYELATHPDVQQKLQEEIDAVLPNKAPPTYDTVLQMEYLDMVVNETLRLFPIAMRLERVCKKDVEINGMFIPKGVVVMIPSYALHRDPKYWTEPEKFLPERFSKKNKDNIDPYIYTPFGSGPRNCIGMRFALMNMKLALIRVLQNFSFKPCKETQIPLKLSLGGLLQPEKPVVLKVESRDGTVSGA

[6] = In vitro in vivo extrapolation to maternal liver; parameters: species or system human
not read = substrate: CC(=O)[C@H]1CC[C@H]2[C@@H]3CCC4=CC(=O)CC[C@]4(C)[C@H]3CC[C@]12C; assay: not read; conditions: other: rCYP3A5 20 pmol, progesterone 20–250 μM; mean ± SE (95% CI); pH 7.4
[7] = substrate: CC(=O)[C@H]1CC[C@H]2[C@@H]3CCC4=CC(=O)CC[C@]4(C)[C@H]3CC[C@]12C
[8] = Fetal, CYP3A5*0*0 (nonexpresser)
[9] = HLMs 0.5 mg/mL, progesterone 20–250 μM, 30 min, mean ± SE
[10] = Maternal, CYP3A5*0*0 (nonexpresser)

Molecule: CC(=O)[C@H]1CC[C@H]2[C@@H]3C[C@@H](O)C4=CC(=O)CC[C@]4(C)[C@H]3CC[C@]12C [6β-OHP, 6β-hydroxyprogesterone]
further metabolism on incubation with HLMs ([1]; metabolite incubated with HLMs, data not shown): did not yield additional metabolism products
effect on oxytocin-induced uterine contractility frequency [2]: increased

Molecule: CC(=O)[C@H]1[C@H](O)C[C@H]2[C@@H]3CCC4=CC(=O)CC[C@]4(C)[C@H]3CC[C@@]21C [16α-OHP, 16α-hydroxyprogesterone]
effect on oxytocin-induced uterine contractility frequency [2]: decreased

formation of 6β-OHP and 16α-OHP metabolites [3]: minimal formation
6β-OHP formed, fetuses expressing active CYP3A5 relative to nonexpressers [4]: ~ 3 times
clearance from fetal liver relative to maternal liver [4]: less than 0.1%
6β-OHP CLf [4, 8]: 0.19 L/h
16α-OHP CLf [4, 8]: 0.13 L/h
CLint, H [4, 8]: 0.32 L/h
metabolite formation (recombinant CYP2A6): did not produce detectable metabolites
activity (CLint) for 6β-OHP, CYP3A5 relative to CYP3A7 (recombinant human CYP3A5): 23 fold
intrinsic clearance (CLint), 6β-OHP formation [5]: 59.2 μL/min/mg protein
Km at 30 min (in vitro; pH 7.4, Km for formation of 6β-OHP): 27.7 ± 8.1 µM
Km at 30 min (in vitro; pH 7.4, Km for formation of 16α-OHP): 29.8 ± 5.7 µM
6β-OHP CLint (recombinant human CYP3A4; recombinant enzyme): 2.3 μL/min/pmol protein
enzymatic activity (CLint) for 6β-OHP, CYP3A4 relative to CYP3A5 (recombinant human CYP3A4; recombinant enzyme): 25 fold
6β-OHP CLf [6, 10]: 624 L/h
16α-OHP CLf [6, 10]: 346 L/h
CLint, H [6, 10]: 970 L/h
6β-OHP formation relative to 16α-OHP ([6]; maternal, CYP3A5 expressers): 2 fold
reduction in clearance of progesterone in CYP3A5 nonexpressers ([6]; maternal, vs CYP3A5 expressers): 5%
Molecule: CC(=O)[C@H]1CC[C@H]2[C@@H]3CCC4=CC(=O)CC[C@]4(C)[C@H]3CC[C@]12C [progesterone, Progesterone]
Vmax for 16α-OHP formation (CYP17A1): 0.12 nmol/h/mg protein
Vmax for 17α-OHP formation (CYP17A1): 0.46 nmol/h/mg protein
Vmax for formation of 6β-OHP [1, 9]: 1640±111 pmol/min/mg protein
Vmax for formation of 16α-OHP [1, 9]: 192.1 ± 8.9 pmol/min/mg protein
6β-OHP Vmax (recombinant human CYP3A4): 22.3 ± 1.1 (20.1–24.6) pmol/min/pmol protein

B1: recombinant human CYP3A5 (Homo sapiens) (protein)
chain: MDLIPNLAVETWLLLAVSLVLLYLYGTRTHGLFKRLGIPGPTPLPLLGNVLSYRQGLWKFDTECYKKYGKMWGTYEGQLPVLAITDPDVIRTVLVKECYSVFTNRRSLGPVGFMKSAISLAEDEEWKRIRSLLSPTFTSGKLKEMFPIIAQYGDVLVRNLRREAEKGKPVTLKDIFGAYSMDVITGTSFGVNIDSLNNPQDPFVESTKKFLKFGFLDPLFLSIILFPFLTPVFEALNVSLFPKDTINFLSKSVNRMKKSRLNDKQKHRLDFLQLMIDSQNSKETESHKALSDLELAAQSIIFIFAGYETTSSVLSFTLYELATHPDVQQKLQKEIDAVLPNKAPPTYDAVVQMEYLDMVVNETLRLFPVAIRLERTCKKDVEINGVFIPKGSMVVIPTYALHHDPKYWTEPEEFRPERFSKKKDSIDPYIYTPFGTGPRNCIGMRFALMNMKLALIRVLQNFSFKPCKETQIPLKLDTQGLLQPEKPIVLKVDSRDGTLSGE
Km (not read): 72.5 ± 24.3 (19.5–125) μM and 60.2 ± 11.9 (40.2–89.7) μM
kcat (not read): 0.00367 s⁻¹
kcat/Km (not read): 50 M⁻¹ s⁻¹

B2: recombinant human CYP3A7 (Homo sapiens) (protein)
chain: MDLIPNLAVETWLLLAVSLILLYLYGTRTHGLFKKLGIPGPTPLPFLGNALSFRKGYWTFDMECYKKYRKVWGIYDCQQPMLAITDPDMIKTVLVKECYSVFTNRRPFGPVGFMKNAISIAEDEEWKRIRSLLSPTFTSGKLKEMVPIIAQYGDVLVRNLRREAETGKPVTLKHVFGAYSMDVITSTSFGVSIDSLNNPQDPFVENTKKLLRFNPLDPFVLSIKVFPFLTPILEALNITVFPRKVISFLTKSVKQIKEGRLKETQKHRVDFLQLMIDSQNSKDSETHKALSDLELMAQSIIFIFAGYETTSSVLSFIIYELATHPDVQQKVQKEIDTVLPNKAPPTYDTVLQLEYLDMVVNETLRLFPVAMRLERVCKKDVEINGMFIPKGVVVMIPSYVLHHDPKYWTEPEKFLPERFSKKNKDNIDPYIYTPFGSGPRNCIGMRFALVNMKLALVRVLQNFSFKPCKETQIPLKLRFGGLLLTEKPIVLKAESRDETVSGA
Km [7]: 43.8 ± 31.0 (6.4–199) μM and 44.4 ± 23.5 (15.1–116) μM
kcat [7]: 0.00167 s⁻¹ and 0.00333 s⁻¹
kcat/Km [7]: 50 M⁻¹ s⁻¹ and 66.7 M⁻¹ s⁻¹
